Results: US20100190694A1, “Methods for identifying patients who will respond well to cancer treatment” (priority 2009, published 2010)
“And” between values parts separate entries of the source, which are not always exact repeats. Identical values can stand only once. Like-named read-outs stand apart in the source and are kept apart here. Marks after values point to notes of the source that are not given here.

Experiments:
tumour = assay: xenograft models, tumour growth; conditions: in vivo
[1] = tested on: dihydropyrimidine dehydrogenase (DPD); assay: DPD mRNA by RTQ-PCR in tumor biopsies; format: in vivo, human
Protocol: (§1) DLTs, i.e. grade ¾ non-hematologic toxicities and grade 4 neutropenia or thrombocytopenia, were determined in cycles 1 and 2. Safety was assessed by NCI CTC (v. 3) and efficacy by RECIST criteria. Expression of TS, DPD, and p21 mRNA was measured by RTQ-PCR in PBMC (20 patients at baseline, and pre-dosing, 6 and 24-hours post-dosing, on days 1 and 4 in cycle 1) and in tumor biopsies (8 patients at baseline and once on days 4 or 5 in cycle 1). Results were expressed as gene expression relative to actin (i.e. TS/Actin Relative Gene Expression, DPD/Actin Relative Gene Expression, and p21/Actin Relative Gene Expression).

[2] = tested on: TS, DPD, and p21 expression in PBMC; assay: '2 out of 3' TS/DPD/p21 expression pattern in PBMC versus clinical outcome; format: in vivo, human
From the text: Among the 20 patients where an attempt was made to analyze TS, DPD, and p21 in PBMC, 2 patients seemed to have a clearly favorable clinical outcome (patients 101-3 and 102-14 with treatment durations on Bel/FU of 8 and 14 cycles, respectively; see Tables 4 and 6), i.e. a 10% favorable outcome rate without selection.
If selection of patients for treatment with Bel/FU would have been done after an initial-dose of Bel and analyses of TS, DPD, and p21 expression in PBMC 6-hours post Bel dosing, the favorable outcome rate could have been increased to between 33% and 67% by selection of patients based on a “2 out of 3” positive expression pattern (positive assumed to be TS down-, DPD down-, and p21 up-regulation in comparison to a pre-treatment value).
Selection based on one single sample taken 6-hours post Bel dosing (Table A): 6 (30%; patients 101-3/5/6/7, 102-6/14) of the 20 patients have “2 out of 3” markers showing a favorable expression change after Bel dosing, and 2 (33%) of the 6 patients have clearly favorable clinical outcomes. Note, also patients 101-6 and 101-7 with a “2 out of 3” pattern, but not counted as having “clearly favorable clinical outcome” have longer than median treatment durations on Bel/FU (i.e. 4 cycles; see Table 4).
Selection based on mean of two samples taken 6-hours post Bel dosing (Table B): 3 (15%; patients 101-3, 102-6/14) of the 20 patients have “2 out of 3” markers showing a favorable expression change after Bel dosing, and 2 (67%) of the 3 patients have clearly favorable clinical outcomes.
as §1

[3] = tested on: rapidly proliferating cells; assay: cell cycle arrest and apoptosis; format: cell-based
[4] = set-up: species or system human; conditions: in vivo
Protocol: Cardiac safety was analyzed by extensive ECG monitoring (>3.000 ECG's assessed) in combination with PK assessments of Bel. Based on analyses by a central laboratory, the main findings (mean changes from baseline at the different dose-levels and for Bel alone and in combination with FU) were: • Heart rate, changes of −1 to +11 bpm, without outliers or any dose relationship. • PR duration, changes of −8 to +2 ms, without outliers or any dose relationship. • QRS duration, changes of −3 to +4 ms, without outliers or any dose relationship. • QTcF duration, changes of −4 to +18 ms, without any dose relationship. One outlier pat with a new QTcF value >500 ms was identified at dose-level 1000/750 (max post-infusion QTcF value 522 ms from pre-infusion value of 487 ms).
(§2) Phase I dose-escalation, multi-center study with the objectives to assess: • maximum tolerated dose and dose limiting toxicities (DLT) of Bel in combination with FU • impact of Bel on expression of TS, dihydropyrimidine dehydrogenase (DPD), and p21, in tumor and non-tumor surrogate tissue (peripheral blood mononuclear cells; PBMC) • preliminary anti-tumor activity of Bel in combination with FU • impact of Bel on ECG parameters • pharmacokinetics (PK) of Bel when given in combination with FU

[5] = tested on: thymidylate synthase (TS); assay: TS mRNA by RTQ-PCR in PBMC; format: in vivo, human; conditions: for TS maximum percentage change versus baseline: one value per patient
Protocol: as §1

[6] = tested on: dihydropyrimidine dehydrogenase (DPD); assay: DPD mRNA by RTQ-PCR in PBMC; format: in vivo, human; conditions: for DPD maximum percentage change versus baseline: one value per patient
Protocol: as §1

[7] = Phase I study: pharmacokinetics of Bel; format: in vivo, human; conditions: for half-life: read-out: T1/2, group mean (±SD) (converted)
From the text: as §2
Treatment cycles of 21 days included Bel alone in cycle 1, and Bel in combination with FU in all subsequent cycles (FIG. 4). Treatment was to continue until significant treatment-related toxicity or progressive disease.

[8] = tested on: thymidylate synthase (TS); assay: TS mRNA by RTQ-PCR in tumor biopsies; format: in vivo, human; conditions: Bel monotherapy, Bel 1000 mg/m^2/day, patients with pre- and post-Bel samples
Protocol: as §1

[9] = tested on: thymidylate synthase (TS); conditions: HCT116 colon cancer cells, in vitro; cited from earlier work
p21 = p21 mRNA by RTQ-PCR in tumor biopsies; format: in vivo, human; conditions: for patients with up-regulation of p21 in tumor tissue: Bel monotherapy, Bel 1000 mg/m^2/day
Protocol: as §1

[10] = patient tumor samples, cycle 1 day 4 or 5, Bel 1000 mg/m^2/day, one value per patient, listed as belinostat
[11] = PXD 600, one value per patient, listed as PXD
[12] = PXD 600, one value per patient, listed as PXD, with FU dose 250
[13] = PXD 600, one value per patient, listed as PXD, with FU dose 1000
[14] = PXD 1000, one value per patient, listed as PXD
[15] = PXD 1000, one value per patient, listed as PXD, with FU dose 250
[16] = PXD 1000, one value per patient, listed as PXD, with FU dose 1000
[17] = cycle 1, Belinostat Dose 300 mg/m^2/day
[18] = cycle 1, Belinostat Dose 600 mg/m^2/day
[19] = cycle 1, Belinostat Dose 1000 mg/m^2/day
[20] = belinostat 1000 mg/m^2/day alone, Cycle 2 Day 1, n = 14
[21] = belinostat 1000 mg/m^2/day in combination with FU, Cycle 2 Day 5, n = 13

In the case of O=C(/C=C/c1cccc(S(=O)(=O)Nc2ccccc2)c1)NO [PXD-101], the “tumour growth in xenograft models” value (tumour) is reported as “slows tumour growth”, the “DPD expression change in tumor tissue” value ([1]; Bel monotherapy, Bel 1000 mg/m^2/day) is reported as “minor changes” and the “DPD Change vs baseline” value [1, 10] is reported as “≈”. The “patients with '3 of 3 correct' marker pattern” value ([2]; 6 h, mean of d1 + d4) was 2 pts, the “patients with '2 of 3 correct' marker pattern (down TS-down DPD-up p21)” value ([2]; 6 h, mean of d1 + d4, of 20 patients) was 3 pts and the “patients with '3 of 3 correct' marker pattern” value ([2]; 6 h day 1) was 2 pts. For the same molecule, the “patients with '2 of 3 correct' marker pattern (down TS-down DPD-up p21)” value ([2]; 6 h day 1, of 20 patients) was 6 pts, the “cell cycle arrest and apoptosis” value [3] was “causes cell cycle arrest and apoptosis” and the “max post-infusion QTcF value of the one outlier pat” value ([4]; human) was 522 ms. The “effect on heart rate, AV conduction, cardiac depolarization, morphology or cardiac re-polarization” value [4] was “no clear signal of any clinically relevant effect”, the “6mean-TS, Change from baseline at 6 h based on mean of d1 + d4” value (shortened to “6mean-TS, Change from baseline”) ([5]; PXD 300, one value per patient) was 410% and the “D1-6: TS, Change from baseline at 6 h day 1” value (from here on “D1-6: TS, Change from baseline”) ([5]; PXD 300, one value per patient) was 486%. The “D1-6: TS, Change from baseline” value [5, 11] was 62% and −87% and 144%, the “6mean-TS, Change from baseline” value [5, 12] was 126% and 144% and the “6mean-TS, Change from baseline” value [5, 13] was −65%. The “D1-6: TS, Change from baseline” value [5, 14] was −51% and 63% and −21% and 88% and −14% and 274% and 238%, the “6mean-TS, Change from baseline” value [5, 15] was −51% and 54% and 286% and 169% and 182% and the “6mean-TS, Change from baseline” value [5, 16] was 51% and 142%. For the same molecule, the “TS maximum percentage change versus baseline” value [5, 17] was 486%, the “TS maximum percentage change versus baseline” value [5, 18] was 190% and −87% * and 144% and the “TS maximum percentage change versus baseline” value [5, 19] was 238% and −51% * and 63% and 594% and 250% and 116% and 274% and −67% * and 214%. For the same molecule, the “6mean-DPD, Change from baseline at 6 h based on mean of d1 + d4” value (“6mean-DPD, Change from baseline” for short) ([6]; PXD 300, one value per patient) was 131%, the “D1-6: DPD, Change from baseline at 6 h day 1” value (“D1-6: DPD, Change” for short) ([6]; PXD 300, one value per patient) was 136% and the “D1-6: DPD, Change” value [6, 11] was 30% and −87% and −56% and −13%. The “6mean-DPD, Change from baseline” value [6, 12] was −22% and −37% and −13%, the “6mean-DPD, Change from baseline” value [6, 13] was −59% and the “D1-6: DPD, Change” value [6, 14] was −55% and −57% and 78% and −62% and −28% and 373% and 14% and 6% and 160% and −20% and 547%. For the same molecule, the “6mean-DPD, Change from baseline” value [6, 15] was −55% and 8% and 124% and −22% and 267% and 372%, the “6mean-DPD, Change from baseline” value ([6]; PXD 1000, one value per patient, listed as PXD, with FU dose 500) was 278% and 56% and the “6mean-DPD, Change from baseline” value [6, 16] was 15% and 73% and −20%. The “DPD maximum percentage change versus baseline” value [6, 17] was 136%, the “DPD maximum percentage change versus baseline” value [6, 18] was −74% * and −87% * and −73% * and −13% * and the “DPD maximum percentage change versus baseline” value [6, 19] was 547% and 91% and 220% and 169% and −83% * and 563% and 373% and 98% and −60% * and 160% and −20% * and 62%. The “CL, group mean (±SD)” value [7, 20] was 37,580 (10,893) ml/hr/m^2, the “Vss, group mean (±SD)” value [7, 20] was 16,528 (4,918) ml/m^2 and the “Vz, group mean (±SD)” value [7, 20] was 58,362 (26,136) ml/m^2. The “CL, group mean (±SD)” value [7, 21] was 30,141 (13,824) ml/hr/m^2, the “Vss, group mean (±SD)” value [7, 21] was 13,538 (7,253) ml/m^2 and the “Vz, group mean (±SD)” value [7, 21] was 53,316 (29,753) ml/m^2. For the same molecule, the PK linearity ([7]; day 1 across all dose cohorts (n=22)) was “linear PK”, the half-life ([7]; human, in vivo, intravenous, 1000 mg/m2, belinostat 1000 mg/m^2/day alone, Cycle 2 Day 1, n = 14) was 1 h and the AUC(0-inf) ([7]; human, in vivo, intravenous, belinostat 1000 mg/m^2/day in combination with FU, Cycle 2 Day 5, n = 13, read-out: AUC0-∞, group mean (±SD)) was 33300 ng·h/mL. The AUC ([7]; human, in vivo, intravenous, belinostat 1000 mg/m^2/day in combination with FU, Cycle 2 Day 5, n = 13, read-out: AUCall, group mean (±SD)) was 33200 ng·h/mL, the Cmax ([7]; human, in vivo, intravenous, belinostat 1000 mg/m^2/day in combination with FU, Cycle 2 Day 5, n = 13, read-out: Cmax, group mean (±SD)) was 49500 ng/mL and the half-life ([7]; human, in vivo, intravenous, belinostat 1000 mg/m^2/day in combination with FU, Cycle 2 Day 5, n = 13) was 1.2 h. The “patients with TS down-regulated in tumor tissue” value ([8]; listed as Bel) was 4 of 4, the “patients with TS down-regulated in tumor tissue” value ([8]; listed as belinostat) was “Four of 4” and the “expression of thymidylate synthase (TS)” value [9] was “reduce the expression”. For the same molecule, the “patients with up-regulation of p21 in tumor tissue” value (p21; listed as Bel) was “Three of 4”, the “patients with up-regulation of p21 in tumor tissue” value (p21; listed as belinostat) was 3 of the 4 and the “p21 Change vs baseline” value (p21; [10]) was “≈”.
